In publication PMC11641365, “Evaluation of In Vitro Biological Activity of Flavanone/Chromanone Derivatives: Molecular Analysis of Anticancer Mechanisms in Colorectal Cancer” (International Journal of Molecular Sciences, 2024):

Experiments:
Test in all cases: Hydrogen peroxide level, H2DCFDA probe
Type in all cases: cell-based, human
Caco-2 = conditions: compound at IC50, 24 h, vs control
Experimental: (§1) Cellular H2O2 levels were assessed using 2′,7′-dichlorodihydrofluorescein diacetate (H2DCFDA, Sigma-Aldrich, St. Louis, MO, USA), a well-established fluorogenic probe for intracellular hydrogen peroxide detection. H2DCFDA readily diffuses across the cell membrane and is subsequently hydrolyzed by intracellular esterases to non-fluorescent H2DCF. Oxidation of H2DCF by ROS generates highly fluorescent 2′,7′-dichlorofluorescein (DCF), which accumulates in the cytosol. […] The fluorescence intensity of DCF is directly proportional to the concentration of ROS within the cell.
(§2) Cells were seeded in black 96-well fluorometric microplates at a density of 10 × 10^3 cells/mL. […] Following compound incubation, the medium was removed, and the cell monolayers were washed twice with HBSS (140 mM NaCl, 5 mM KCl, 0.8 mM MgCl2, 1.8 mM CaCl2, 1 mM Na2HPO4, 10 mM HEPES, and 1% glucose). A volume of 50 µL of H2DCFDA solution in HBSS (final concentration 5 μM) was added to each well, and the cells were incubated for 30 min in the dark at 37 °C. After incubation with the H2DCFDA, fluorescence measurements were conducted using a Perkin-Elmer LS-5B spectrofluorometer (MA, USA) at the following excitation and fluorescence emission wavelengths: λex = 498 nm/λem = 522 nm. The fluorescence intensity of control cells was arbitrarily assigned a value of 100%. The results were expressed as percentages of control, calculated by comparing the fluorescence intensity ratio of the test samples to controls (100%). The fluorescence of samples was denoted as Δf in relation to the control.

HCT 116 = conditions: compound at IC50, 24 h
Experimental: as §1, §2

SW620 = conditions: compound at IC50, 24 h, vs control
Experimental: as §1, §2

Compound: O=C1/C(=C/c2ccccc2)COc2ccccc21 [Compound 1]
- Increase in H2O2 levels (Caco-2): approximately 25%

Compound: O=C1/C(=C/c2ccccc2)C(c2ccccc2)Oc2ccccc21 (stereo not drawn) [Compound 5]
- Effect on H2O2 levels (HCT 116): did not affect H2O2 levels
- Increase in H2O2 levels (SW620): 15%
